Reference: EPA's ToxValDB 9.5

System: Mus musculus
[1] = developmental, duration: 54 days, oral, gavage, M/F, CD1, generation: F1, F1: Developmental: Eye: Eye Opening + F1: Developmental: Liver: Liver, Discolored + F1: Developmental: Whole Body: Fetus Or Pup/Neonate, …
[2] = reproduction developmental, duration: 14 days, oral, gavage, F, Crl:CD-1 (ICR) BR, generation: P0, P0: Blood: Hematocrit (HCT) + P0: Blood: Hemoglobin (HGB) + P0: Blood: Lymphocyte + P0: Blood: Monocytes + P0: Blood: Neutrophils + P0: …
[3] = reproduction developmental, duration: 14 days, oral, gavage, F, Crl:CD-1 (ICR) BR, generation: P0, P0: Liver: Hepatocellular Hypertrophy
[4] = reproduction developmental, duration: 14 days, oral, gavage, M/F, Crl:CD-1 (ICR) BR, generation: P0, P0: Eye: Eye Opening + P0: Whole Body: Lactation Index + P0: Whole Body: Pup Mortality + P0: Whole Body: Pup Weight Relative to Litter
[5] = reproduction developmental, duration: 54 days, oral, gavage, F, CD1, generation: P0, P0: Developmental: Uterus: Implantation + P0: Developmental: Whole Body: No. Male Pups per No. of Pups Sexed
[6] = reproduction developmental, duration: 54 days, oral, gavage, F, CD1, generation: P0, P0: Developmental: Uterus: Implantation + P0: Developmental: Whole Body: No. Male Pups per No. of Pups Sexed + P0: Reproductive: Whole Body…
[7] = reproduction developmental, duration: 109 days, oral, gavage, M, Crl:CD-1 (ICR) BR, generation: P0, P0: Blood: Hematocrit (HCT) + P0: Blood: Hemoglobin (HGB) + P0: Blood: Sorbitol Dehydrogenase (SDH), Blood + P0: Kidney: Blood Urea Nitrogen…
[8] = reproduction developmental, duration: 109 days, oral, gavage, M, Crl:CD-1 (ICR) BR, generation: P0, P0: Hepatic: Liver: Alanine Aminotransferase (ALT), Blood + P0: Hepatic: Liver: Alkaline Phosphatase (ALP), Blood + P0: Hepatic: Liver: …
[9] = reproduction developmental, duration: 109 days, oral, gavage, M, Crl:CD-1 (ICR) BR, generation: P0, P0: Liver: Hepatocellular Hypertrophy
[10] = reproduction developmental, multiple, M, Crl:CD-1 (ICR) BR, generation: F1, F1: Reproductive: Prepuce: Preputial Separation + F1: Whole Body: Whole Body: Body Weight Change + F1: Whole Body: Whole Body: Feed …
[11] = reproduction developmental, multiple, M, Crl:CD-1 (ICR) BR, generation: F1, F1: Whole Body: Whole Body: Body Weight Change + F1: Whole Body: Whole Body: Feed Consumption, Absolute
[12] = reproduction developmental, oral, gavage, F, CD1, generation: P0, P0: Blood: Hematocrit (HCT) + P0: Blood: Hemoglobin (HGB) + P0: Blood: Lymphocyte + P0: Blood: Monocytes + P0: Blood: Neutrophils + P0: …
[13] = reproduction developmental, oral, gavage, F, CD1, generation: P0, P0: Liver: Alanine Aminotransferase (ALT), Blood + P0: Liver: Alkaline Phosphatase (ALP), Blood + P0: Liver: Aspartate Aminotransferase (AST…
[14] = reproduction developmental, oral, gavage, F, Crl:CD-1 (ICR) BR, generation: P0, P0: Hepatic: Liver: Alanine Aminotransferase (ALT), Blood + P0: Hepatic: Liver: Alkaline Phosphatase (ALP), Blood + P0: Hepatic: Liver: …
[15] = reproduction developmental, oral, gavage, M, CD1, generation: P0, P0: Blood: Cholesterol (CHOL), Total + P0: Blood: Hematocrit (HCT) + P0: Blood: Hemoglobin (HGB) + P0: Blood: Lymphocyte + P0: Blood: …

OCCC(F)(F)C(F)(F)C(F)(F)C(F)(F)C(F)(F)C(F)(F)F [2-(Perfluorohexyl)ethanol] was tested. Which LOAEL [1] did it give?
Its LOAEL is 120 mg/kg-day.

What about the NOAEL [1] of the same molecule?
Its NOAEL is 25 mg/kg-day.

What about the NEL (developmental, oral, gavage, M/F, CD1, generation: F1, F1: Eye: Eye Opening + F1: Liver: Liver, Discolored + F1: Prepuce or Vagina: Preputial Separation or Vaginal Patency + F1: Whole Body: Fetus…) of the same molecule?
Its NEL is 25 mg/kg-day.

What about the LEL (developmental, oral, gavage, M/F, CD1, generation: F1, F1: Eye: Eye Opening + F1: Liver: Liver, Discolored + F1: Whole Body: Fetus Or Pup/Neonate, Small + F1: Whole Body: Lactation Index + F1: …) of the same molecule?
Its LEL is 100 mg/kg-day.

And the LEL [2]?
The LEL was 100 mg/kg-day.

What about the NEL [2] of the same molecule?
Its NEL is 25 mg/kg-day.

And the NEL (reproduction developmental, duration: 14 days, oral, gavage, F, Crl:CD-1 (ICR) BR, generation: P0, P0: Kidney: Kidney Weight, Absolute + P0: Liver: Liver Weight, Absolute + P0: Liver: Total Bilirubin (TBILI), Blood + P0: Liver: Total …)?
The NEL was 100 mg/kg-day.

What about the LEL [3] of the same molecule?
The LEL was 5 mg/kg-day.

What about the NEL [3] of the same molecule?
Its NEL is 1 mg/kg-day.

What about the LEL [4] of the same molecule?
The LEL was 100 mg/kg-day.

And the NEL [4]?
Its NEL is 25 mg/kg-day.

What about the NEL (reproduction developmental, duration: 14 days, oral, gavage, M/F, Crl:CD-1 (ICR) BR, generation: P0, P0: Whole Body: Live Pups Born + P0: Whole Body: Male Pups per Pups Sexed + P0: Whole Body: Viability Index) of the same molecule?
The NEL was 100 mg/kg-day.

And the NEL (reproduction developmental, duration: 42 days, multiple, F, Crl:CD-1 (ICR) BR, generation: P0, P0: Vagina: Vaginal Patency + P0: Whole Body: Body Weight Change + P0: Whole Body: Feed Consumption, Absolute)?
The NEL was 25 mg/kg-day.

What about the NEL (reproduction developmental, duration: 42 days, multiple, M, Crl:CD-1 (ICR) BR, generation: P0, P0: Prepuce: Preputial Separation + P0: Whole Body: Body Weight Change + P0: Whole Body: Feed Consumption, Absolute) of the same molecule?
Its NEL is 25 mg/kg-day.

What about the LOAEL [5] of the same molecule?
Its LOAEL is 120 mg/kg-day.

And the NOAEL [5]?
Its NOAEL is 25 mg/kg-day.

What about the LOAEL [6] of the same molecule?
The LOAEL was 120 mg/kg-day.

And the NOAEL [6]?
The NOAEL was 25 mg/kg-day.

What about the NOAEL (reproduction developmental, duration: 54 days, oral, gavage, F, CD1, generation: P0, P0: Reproductive: Whole Body: Fertility Index + P0: Reproductive: Whole Body: Gestation Index + P0: Reproductive: Whole Body: Percent Mating) of the same molecule?
The NOAEL was 120 mg/kg-day.

What about the NOAEL (reproduction developmental, duration: 54 days, oral, gavage, M/F, CD1, generation: F1, F1: Reproductive: Prepuce or Vagina: Preputial Separation or Vaginal Patency) of the same molecule?
Its NOAEL is 120 mg/kg-day.

What about the LOAEL (reproduction developmental, duration: 54 days, oral, gavage, M, CD1, generation: P0, P0: Reproductive: Whole Body: Fertility Index + P0: Reproductive: Whole Body: Percent Mating) of the same molecule?
Its LOAEL is 120 mg/kg-day.

What about the LEL [7] of the same molecule?
Its LEL is 100 mg/kg-day.

And the NEL [7]?
The NEL was 25 mg/kg-day.

What about the NEL (reproduction developmental, duration: 109 days, oral, gavage, M, Crl:CD-1 (ICR) BR, generation: P0, P0: Blood: Lymphocyte + P0: Blood: Monocytes + P0: Blood: Neutrophils + P0: Blood: Red Blood Cell (RBC) + P0: Blood: Reticulocytes + P0: …) of the same molecule?
The NEL was 100 mg/kg-day.

And the LOAEL [8]?
Its LOAEL is 5 mg/kg-day.

And the NOAEL [8]?
The NOAEL was 1 mg/kg-day.

And the LEL [9]?
The LEL was 5 mg/kg-day.

What about the NEL [9] of the same molecule?
The NEL was 1 mg/kg-day.

And the NOAEL (reproduction developmental, duration: 109 days, oral, gavage, M, Crl:CD-1 (ICR) BR, generation: P0, P0: Reproductive: Epididymis: Epididymis Weight, Absolute + P0: Reproductive: Epididymis: Epididymis Weight, Relative + P0: Reproductive: …)?
The NOAEL was 100 mg/kg-day.

And the NOAEL (reproduction developmental, multiple, M, Crl:CD-1 (ICR) BR, generation: F1, F1: Reproductive: Prepuce: Preputial Separation)?
The NOAEL was 100 mg/kg-day.

What about the LOAEL [10] of the same molecule?
Its LOAEL is 5 mg/kg-day.

And the NOAEL [10]?
The NOAEL was 1 mg/kg-day.

What about the LOAEL [11] of the same molecule?
Its LOAEL is 100 mg/kg-day.

What about the NOAEL [11] of the same molecule?
The NOAEL was 25 mg/kg-day.

What about the NEL (reproduction developmental, oral, gavage, F, CD1, generation: P0, P0: Blood: Calcium (CA), Blood + P0: Blood: Chloride (CL), Blood + P0: Blood: Globulin (G), Blood + P0: Blood: Glucose (GLU), Blood + P0: …) of the same molecule?
The NEL was 100 mg/kg-day.

And the LEL [12]?
The LEL was 100 mg/kg-day.

What about the NEL [12] of the same molecule?
The NEL was 25 mg/kg-day.

And the LEL [13]?
Its LEL is 25 mg/kg-day.

And the NEL [13]?
The NEL was 5 mg/kg-day.

What about the NEL (reproduction developmental, oral, gavage, F, CD1, generation: P0, P0: Uterus: Implantation + P0: Whole Body: Fertility Index + P0: Whole Body: Gestation Index + P0: Whole Body: Male Pups per Pups Sexed + P0…) of the same molecule?
Its NEL is 100 mg/kg-day.

And the LOAEL [14]?
The LOAEL was 5 mg/kg-day.

What about the NOAEL [14] of the same molecule?
Its NOAEL is 1 mg/kg-day.

And the NEL (reproduction developmental, oral, gavage, M/F, CD1, generation: F1, F1: Whole Body: Live Pups Born + F1: Whole Body: Viability Index)?
Its NEL is 100 mg/kg-day.

And the NEL (reproduction developmental, oral, gavage, M, CD1, generation: P0, P0: Blood: Calcium (CA), Blood + P0: Blood: Globulin (G) + P0: Blood: Glucose (GLU) + P0: Blood: Inorganic Phosphorous (PHOS) + P0: Blood: …)?
The NEL was 100 mg/kg-day.

What about the LEL [15] of the same molecule?
Its LEL is 100 mg/kg-day.

And the NEL [15]?
Its NEL is 25 mg/kg-day.

And the NEL (reproduction developmental, oral, gavage, M, CD1, generation: P0, P0: Whole Body: Fertility Index + P0: Whole Body: Percent Mating)?
Its NEL is 100 mg/kg-day.
